The source of these data is patent publication US12653899B2, “Multi-targeted, tunable, sustained delivery of payloads to charged avascular tissues” (Massachusetts Institute of Technology, priority 2019, dated 2026).

The subject of this assay is human ankle cartilage explants treated with IL-1β. Kind of assay: IL-1β cytokine challenge model, sGAG biosynthesis rate in human ankle cartilage explants. Format: cell-based. The following applies: for rescue of the biosynthesis loss caused by human IL-1β: days 6-8. The procedure: Cartilage was harvested from the ankles of a donor (Collins Grade 1) and a donor (Collins Grade 1). Cartilage explants were equilibrated in culture media for 2 days after harvest. […] These were cut down to 1 mm thickness and allowed to equilibrate for a further 2 days before experiments were set up. Human IL-1β was used to induce osteoarthritis-like changes in cartilage. Experiments were set up to identify IL-1β doses at which 40 nM of free IGF-1 can rescue the IL-1β induced biosynthesis loss in cartilage. A dose response experiment in which single doses of (+9GFP)-(GGGGS)4-(IGF-1) (SEQ ID NO: 7) and (+9GFP)-(EAAAK)3-(IGF-1) (SEQ ID NO: 8) were added along with 100 pg/ml human IL-1β was also set up.
Experimental groups (N=8 to 10 cartilage explants in each group): Untreated control (Ctrl in FIG. 6A and FIG. 6B), 10 pg/mL human IL-1β (10 pg/ml IL-1b in FIG. 6A and FIG. 6B), 10 pg/mL human IL-1β+40 nM IGF-1 (10 pg/ml IL-1b+40 nM IGF-1 in FIG. 6A and FIG. 6B), 100 pg/mL human IL-1β (100 pg/ml IL-1b in FIG. 6A and FIG. 6B), 100 pg/mL human IL-1β+40 nM IGF-1 (100 pg/ml IL-1b+40 nM IGF-1 in FIG. 6A and FIG. 6B), 500 pg/mL human IL-1β (500 pg/ml IL-1b in FIG. 6A and […]), 500 pg/mL human IL-1β+40 nM IGF-1 (500 pg/ml IL-1b+40 nM IGF-1 in FIG. 6A and FIG. 6B), 1000 pg/mL human IL-1β (1 ng/ml IL-1b in FIG. 6A and FIG. 6B), 1000 pg/mL human IL-1β+40 nM IGF-1 (1 ng/ml IL-1b+40 nM IGF-1 in FIG. 6A and FIG. 6B). Media changes were performed every 2 days and the experiment was terminated after 8 days.
Chondrocyte biosynthesis rate (primarily aggrecan synthesis) was measured between days 6 and 8 of the experiment using a 35S-sulfate radiolabel. Statistics: 1-way ANOVA with post-hoc Tukey's HSD test.
This experiment was set up with cartilage explants from the donor ankle. Experimental groups (N=8 to 10 cartilage explants in each group): Untreated control (Ctrl in FIG. 6C), Continuous human IL-1β control (100 pg/ml dose added with every media change) (IL-1b in FIG. 6C), Continuous human IL-1β+continuous free IGF-1 control (100 pg/ml human IL-1β and 40 nM free IGF-1 dose added with every media change) (IL-1b+IGF1 FIG. 6C), Continuous human IL-1β+(+9GFP)-(GGGGS)4-(IGF-1) (SEQ ID NO: 7) 500 nM single dose (100 pg/ml human IL-1β added with every media change; Single 500 nM fusion protein dose added on Day 0) (IL-1b+0.5 μM Flex-1 in FIG. 6C), Continuous human IL-1β+(+9GFP)-(GGGGS)4-(IGF-1) (SEQ ID NO: 7) 1 μM single dose (100 pg/ml human IL-1β added with every media change; Single 1 μM fusion protein dose added on Day 0) (IL-1b+1 μM Flex-1 in FIG. 6C), Continuous human IL-1β+(+9GFP)-(EAAAK)3-(IGF-1) (SEQ ID NO: 8) 500 nM single dose (100 pg/ml human IL-1β added with every media change; Single 500 nM fusion protein dose added on Day 0), Continuous human IL-1β+(+9GFP)-(EAAAK)3-(IGF-1) (SEQ ID NO: 8) 1 μM single dose (100 pg/ml human IL-1β added with every media change; Single 1 μM fusion protein dose added on Day 0) (IL-1b+1 μM Rig-1 in FIG. 6C).
Preliminary dose response experiments were performed to test the effects of human IL-1β (PeproTech, Rocky Hill, NJ) on human ankle cartilage. Ankle cartilage explants from two different donors (equilibrated in culture medium post-harvest) were cultured in serum-free low glucose medium (same composition as equilibration medium) and treated with continuous IL-1β doses ranging from 10 pg/ml to 1 ng/ml for 8 days. The experiments also included groups of explants that were treated with 300 ng/ml free IGF-1 at each dose level of IL-1β. Based on the results of these experiments, 100 pg/ml IL-1β was chosen as the dose used for the fusion protein dose response experiments. In these experiments, ankle and knee cartilage explants (equilibrated in culture medium post-harvest) were treated continuously with IL-1β and received single doses of fusion proteins (ranging from 39.2 nM to 2 μM) at the start of the experiments. […]

[1] abbreviates: single 2 μM dose, 100 pg/ml IL-1β, 10-day experiment (FIG. 15B).

For the substance “(+9GFP)-(EAAAK)3-(IGF-1): fusion protein of +9 GFP and human IGF-1 with rigid (EAAAK)3 linker, SEQ ID NO: 8”, the “rescue of the biosynthesis loss caused by human IL-1β” value (both dose levels (single 500 nM and 1 μM), 100 pg/ml human IL-1β, donor) is “able to rescue”. Also, the “rescue of the loss of biosynthesis caused by IL-1β” value (shortened to “rescue of the loss … by IL-1β”) is on record as “partial rescue” (single 1 μM dose, 100 pg/ml IL-1β, 7-day experiment (FIG. 15A)) and “partially rescued” under setting [1].

On to “IGF-1: free recombinant human IGF-1 (PeproTech), pro-anabolic growth factor used as the positive control”, for which the “rescue of the biosynthesis loss caused by human IL-1β” value by setting is: (40 nM free IGF-1, 100 pg/ml human IL-1β) “completely rescue”; (40 nM free IGF-1, 500 pg/ml and 1000 pg/ml human IL-1β) “partial rescue”. Moreover, the “biosynthesis rate versus untreated control” value by setting is: (300 ng/ml IGF-1 + 10 pg/ml human IL-1β, both donors) “surpassed the untreated control biosynthesis”; (300 ng/ml IGF-1 + 100 pg/ml human IL-1β, both donors) “not statistically significantly different from the untreated control”; (300 ng/ml IGF-1 + 500 pg/ml or 1 ng/ml human IL-1β, donor) “significantly lower biosynthesis compared to the untreated control”. Besides, the “rescue of biosynthesis loss” value is, setting by setting: (continuous free IGF-1 300 ng/ml, 100 pg/ml IL-1β, 7-day and 10-day experiments) “complete rescue”; (continuous free IGF-1, human IL-1β 1 ng/ml) “could not rescue”.

Regarding “(+9GFP)-(GGGGS)4-(IGF-1): fusion protein of +9 GFP and human IGF-1 with flexible (GGGGS)4 linker, SEQ ID NO: 7”, the “rescue of the loss … by IL-1β” value (single 1 μM dose, 100 pg/ml IL-1β, 10-day experiment (FIG. 15B)) is “partially rescued”; the “rescue of the loss … by IL-1β” value (single 2 μM dose, 100 pg/ml IL-1β, 7-day experiment (FIG. 15A)) was “completely rescue”; the “rescue of the loss … by IL-1β” value under setting [1] is recorded as “partially rescued”.
